Results as given in patent US20060069132A1, “Azolecarboxamide herbicides” (priority 2004, published 2006).

What was measured:
[1] = system: Surinam grass; test: Test B pre-/postemergence herbicide test; format: in vivo, Urochloa decumbens; conditions: for Surinam Grass plant response rating: postemergence, visual rating
In short: (§1)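 Plants compared with untreated controls 13–15 days post-treatment and given a visual 0–100 injury score. Applications: preemergence to seeds; postemergence at 1- to 4-leaf (2–18 cm); paddy species flooded, 2-leaf stage. Vehicle non-phytotoxic, surfactant included.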

[2] = system: blackgrass; test: Test B postemergence herbicide test; format: in vivo, Alopecurus myosuroides; conditions: scale 0 (no effect) to 100 (complete control); for Plant response rating, Blackgrass: Postemergence, 500 g ai/ha, visual rating after 13 to 15 days; for Blackgrass plant response rating: postemergence, 125 g ai/ha, visual rating
In short: (§2)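 After treating 2-leaf paddy plants or 2–18 cm postemergence plants (1 to 4 leaves) with formulated chemical, researchers kept them in a greenhouse for 13–15 days. Effects were judged visually versus controls: 0 indicates none, 100 total control.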

[3] = system: morningglory; test: Test B pre-/postemergence herbicide test; format: in vivo, Ipomoea coccinea; conditions: for Morningglory plant response rating: postemergence, visual rating
In short: (§3)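 Flooded paddy rice and barnyardgrass were treated at the 2-leaf stage; upland plantings received compound either on sown seed or on 1- to 4-leaf seedlings. All were kept 13–15 days in a greenhouse and scored visually, 0–100, relative to untreated plants.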

[4] = system: large crabgrass; test: Test B pre-/postemergence herbicide test; format: in vivo, Digitaria sanguinalis
In short: as §1

[5] = system: pigweed; test: Test B pre-/postemergence herbicide test; format: in vivo, Amaranthus retroflexus; conditions: for Pigweed plant response rating: postemergence, visual rating
In short: as §1

[6] = system: rice; test: Test B pre-/postemergence herbicide test; format: in vivo, Oryza sativa; conditions: preemergence
In short: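 Greenhouse pot assay with simultaneous preemergence (treated seed) and postemergence (2–18 cm seedlings) applications of surfactant-containing, non-phytotoxic solvent formulations. Response scored visually 13–15 days later on a 0–100 scale, 100 meaning complete control.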

[7] = system: barnyardgrass; test: Test B flooded paddy test; format: in vivo, Echinochloa crus-galli; conditions: 1000 g ai/ha, visual rating, scale 0 to 100 (0 no effect, 100 complete control), 13 to 15 days
In short: as §2

[8] = system: ducksalad; test: Test C flooded paddy test; format: in vivo, Heteranthera limosa; conditions: for Plant response rating, Ducksalad: 500 g ai/ha, visual rating after 12 to 14 days
[9] = system: rice; test: Test B flooded paddy test; format: in vivo, Oryza sativa; conditions: 1000 g ai/ha, visual rating, scale 0 to 100 (0 no effect, 100 complete control), 13 to 15 days
In short: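 Formulated test chemicals went onto postemergence plants measuring 2 to 18 cm, at one to four leaves. For the paddy assay, species had reached two leaves. Scoring took place 13–15 days later by eye, relative to untreated plants, using 0 for no effect up to 100 for full control.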

[10] = system: small flower umbrella sedge; test: Test B flooded paddy test; format: in vivo, Cyperus difformis; conditions: 1000 g ai/ha, visual rating, scale 0 to 100 (0 no effect, 100 complete control), 13 to 15 days
In short: as §2

[11] = system: corn; test: Test B pre-/postemergence herbicide test; format: in vivo, Zea mays
In short: as §1

[12] = system: wild oat; test: Test B postemergence herbicide test; format: in vivo, Avena fatua; conditions: scale 0 (no effect) to 100 (complete control); for Plant response rating, Oat, Wild: Postemergence, 500 g ai/ha, visual rating after 13 to 15 days; for Oat, Wild plant response rating: postemergence, 125 g ai/ha, visual rating
In short: (§4)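 Treated at 2-leaf (paddy) or 1–4-leaf, 2–18 cm (postemergence); greenhouse 13–15 d; visual score vs control, 0 none to 100 complete control; dash = not tested.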

[13] = system: ducksalad; test: Test B flooded paddy test; format: in vivo, Heteranthera limosa; conditions: 1000 g ai/ha, visual rating, scale 0 to 100 (0 no effect, 100 complete control), 13 to 15 days
In short: as §2

[14] = system: smallflower umbrella sedge; test: Test C flooded paddy test; format: in vivo, Cyperus difformis; conditions: for Plant response rating, Sedge, Umbrella: 500 g ai/ha, visual rating after 12 to 14 days
[15] = system: cocklebur; test: Test B pre-/postemergence herbicide test; format: in vivo, Xanthium strumarium
In short: as §3

[16] = system: velvetleaf; test: Test B pre-/postemergence herbicide test; format: in vivo, Abutilon theophrasti; conditions: for Velvetleaf plant response rating: postemergence, visual rating
In short: as §1

[17] = system: barnyardgrass; test: Test B pre-/postemergence herbicide test; format: in vivo, Echinochloa crus-galli
In short: as §3

[18] = system: wheat; test: Test B postemergence herbicide test; format: in vivo, Triticum aestivum; set-up: key to Wheat plant response rating: 0 = no effect, 100 = complete control; conditions: scale 0 (no effect) to 100 (complete control); for Plant response rating, Wheat: Postemergence, 500 g ai/ha, visual rating after 13 to 15 days; for Wheat plant response rating: postemergence, 125 g ai/ha, visual rating
In short: as §4

[19] = system: lambsquarters; test: Test B pre-/postemergence herbicide test; format: in vivo, Chenopodium album; conditions: for Lambsquarters plant response rating: postemergence, visual rating
In short: as §1

[20] = system: barnyardgrass; test: Test C flooded paddy test; format: in vivo, Echinochloa crus-galli; conditions: for Plant response rating, Barnyardgrass: 500 g ai/ha, visual rating after 12 to 14 days
In short: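 After a postemergence application at 1 to 4 leaves (plants 2–18 cm high), or at 2 leaves for barnyardgrass in flooded paddy, plants stayed in the greenhouse for 12 to 14 days. Damage was then judged visually relative to control plants, with 100 indicating complete control.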

[21] = system: rice; test: Test C flooded paddy test; format: in vivo, Oryza sativa; conditions: for Plant response rating, Rice: 500 g ai/ha, visual rating after 12 to 14 days
In short: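 Postemergence sprays applied to plants 2 to 18 cm tall (1- to 4-leaf stage); paddy species grown to 2-leaf stage under flooding. After 12 to 14 days in greenhouse, visual rating versus untreated controls on 0–100 scale (0 no effect, 100 complete control).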

[22] = system: giant foxtail; test: Test B pre-/postemergence herbicide test; format: in vivo, Setaria faberi
In short: as §1

[23] = Postemergence, 500 g ai/ha, visual rating after 13 to 15 days, scale 0 (no effect) to 100 (complete control)
[24] = 125 g ai/ha, scale 0 (no effect) to 100 (complete control)
[25] = preemergence, 125 g ai/ha, 0 to 100 scale, 0 is no effect, 100 is complete control
[26] = Preemergence, 500 g ai/ha, scale 0 to 100
[27] = postemergence, 125 g ai/ha, visual rating, scale 0 (no effect) to 100 (complete control)
[28] = 125 g ai/ha, 0 to 100 scale, 0 is no effect, 100 is complete control
[29] = 62 g ai/ha, scale 0 to 100 (0 no effect, 100 complete control)
[30] = 125 g ai/ha, scale of 0 to 100, 0 is no effect, 100 is complete control
[31] = 250 g ai/ha, scale of 0 to 100, 0 is no effect, 100 is complete control
[32] = scale 0 to 100 (0 no effect, 100 complete control)
[33] = 500 g ai/ha, visual rating 0-100, 0 no effect, 100 complete control, preemergence

CCOC(=O)c1cc(NC(=O)c2cc(C(C)(C)C)nn2CC)c(F)cc1OC [Compound 76]
Plant response rating, Surinam Grass [1, 23]: 20
Surinam Grass plant response rating [1, 24]: 20
Plant response rating, Surinam Grass [1, 25]: 70
Plant response rating, Blackgrass [2]: 50
Blackgrass plant response rating [2]: 10
Plant response rating, Morningglory [3, 23]: 10
Morningglory plant response rating [3, 24]: 10
Plant response rating, Morningglory [3, 25]: 10
Plant response rating, Crabgrass, Large [4, 23]: 20
Crabgrass, Large plant response rating [4, 26]: 90
Crabgrass, Large plant response rating [4, 27]: 10
Plant response rating, Crabgrass, Large [4, 25]: 80
Plant response rating, Pigweed [5, 23]: 100
Pigweed plant response rating [5, 24]: 100
Plant response rating, Pigweed [5, 25]: 100
Plant response rating, Rice [6, 28]: 50
Barnyardgrass plant response rating [7]: 70
Ducksalad plant response rating [8, 29]: 45
Ducksalad plant response rating [8, 30]: 50
Ducksalad plant response rating [8, 31]: 75
Plant response rating, Ducksalad [8, 32]: 80
Rice plant response rating [9]: 60
Sedge, Umbrella plant response rating [10]: 60
Plant response rating, Corn [11, 23]: 30
Corn plant response rating [11, 26]: 50
Corn plant response rating [11, 27]: 10
Plant response rating, Corn [11, 25]: 30
Plant response rating, Oat, Wild [12]: 40
Oat, Wild plant response rating [12]: 30
Ducksalad plant response rating [13]: 100
Sedge, Umbrella plant response rating [14, 29]: 80
Sedge, Umbrella plant response rating [14, 30]: 85
Sedge, Umbrella plant response rating [14, 31]: 85
Plant response rating, Sedge, Umbrella [14, 32]: 90
Plant response rating, Cocklebur [15, 23]: 90
Cocklebur plant response rating [15, 26]: 40
Cocklebur plant response rating [15, 27]: 40
Plant response rating, Velvetleaf [16, 23]: 40
Velvetleaf plant response rating [16, 24]: 40
Plant response rating, Velvetleaf [16, 25]: 30
Plant response rating, Barnyardgrass [17, 23]: 20
Barnyardgrass plant response rating [17, 26]: 100
Barnyardgrass plant response rating [17, 27]: 10
Plant response rating, Barnyardgrass [17, 25]: 80
Plant response rating, Wheat [18]: 30
Wheat plant response rating [18]: 20
Plant response rating, Lambsquarters [19, 23]: 60
Lambsquarters plant response rating [19, 24]: 30
Plant response rating, Lambsquarters [19, 25]: 50
Barnyardgrass plant response rating [20, 29]: 50
Barnyardgrass plant response rating [20, 30]: 70
Barnyardgrass plant response rating [20, 31]: 80
Plant response rating, Barnyardgrass [20, 32]: 90
Rice plant response rating [21, 29]: 75
Rice plant response rating [21, 30]: 80
Rice plant response rating [21, 31]: 85
Plant response rating, Rice [21, 32]: 90
Plant response rating, Foxtail, Giant [22, 23]: 40
Foxtail, Giant plant response rating [22, 26]: 100
Foxtail, Giant plant response rating [22, 27]: 20
Plant response rating, Foxtail, Giant [22, 25]: 90

CCn1nc(C(C)(C)C)cc1C(=O)Nc1ccc(OC)c(C(=O)OC(C)C)c1 [Compound 101]
Plant response rating, Surinam Grass [1, 33]: 30
Plant response rating, Surinam Grass [1, 23]: 20
Surinam Grass plant response rating [1, 24]: 10
Plant response rating, Surinam Grass [1, 25]: 10
Plant response rating, Blackgrass [2]: 40
Blackgrass plant response rating [2]: 20
Plant response rating, Morningglory [3, 33]: 10
Plant response rating, Morningglory [3, 23]: 10
Morningglory plant response rating [3, 24]: 10
Plant response rating, Morningglory [3, 25]: 10
Plant response rating, Crabgrass, Large [4, 33]: 90
Plant response rating, Crabgrass, Large [4, 23]: 20
Crabgrass, Large plant response rating [4, 27]: 10
Plant response rating, Crabgrass, Large [4, 25]: 50
Plant response rating, Pigweed [5, 33]: 100
Plant response rating, Pigweed [5, 23]: 90
Pigweed plant response rating [5, 24]: 80
Plant response rating, Pigweed [5, 25]: 100
Plant response rating, Rice ([6]; 500 g ai/ha, visual rating 0-100, 0 no effect, 100 complete control): 40
Plant response rating, Rice [6, 28]: 30
Barnyardgrass plant response rating [7]: 70
Ducksalad plant response rating [8, 29]: 0
Ducksalad plant response rating [8, 30]: 0
Ducksalad plant response rating [8, 31]: 40
Plant response rating, Ducksalad [8, 32]: 75
Rice plant response rating [9]: 80
Sedge, Umbrella plant response rating [10]: 80
Plant response rating, Corn [11, 33]: 40
Plant response rating, Corn [11, 23]: 40
Corn plant response rating [11, 27]: 10
Plant response rating, Corn [11, 25]: 20
Plant response rating, Oat, Wild [12]: 50
Oat, Wild plant response rating [12]: 30
Ducksalad plant response rating [13]: 90
Sedge, Umbrella plant response rating [14, 29]: 20
Sedge, Umbrella plant response rating [14, 30]: 75
Sedge, Umbrella plant response rating [14, 31]: 80
Plant response rating, Sedge, Umbrella [14, 32]: 90
Plant response rating, Cocklebur [15, 33]: 90
Plant response rating, Cocklebur [15, 23]: 80
Cocklebur plant response rating [15, 27]: 20
Plant response rating, Cocklebur [15, 25]: 0
Plant response rating, Velvetleaf [16, 33]: 50
Plant response rating, Velvetleaf [16, 23]: 30
Velvetleaf plant response rating [16, 24]: 20
Plant response rating, Velvetleaf [16, 25]: 20
Plant response rating, Barnyardgrass [17, 33]: 70
Plant response rating, Barnyardgrass [17, 23]: 20
Barnyardgrass plant response rating [17, 27]: 10
Plant response rating, Barnyardgrass [17, 25]: 40
Plant response rating, Wheat [18]: 20
Wheat plant response rating [18]: 10
Plant response rating, Lambsquarters [19, 33]: 100
Plant response rating, Lambsquarters [19, 23]: 90
Lambsquarters plant response rating [19, 24]: 80
Plant response rating, Lambsquarters [19, 25]: 100
Barnyardgrass plant response rating [20, 29]: 0
Barnyardgrass plant response rating [20, 30]: 20
Barnyardgrass plant response rating [20, 31]: 30
Plant response rating, Barnyardgrass [20, 32]: 50
Rice plant response rating [21, 29]: 0
Rice plant response rating [21, 30]: 0
Rice plant response rating [21, 31]: 0
Plant response rating, Rice [21, 32]: 25
Plant response rating, Foxtail, Giant [22, 33]: 60
Plant response rating, Foxtail, Giant [22, 23]: 30
Foxtail, Giant plant response rating [22, 27]: 20
Plant response rating, Foxtail, Giant [22, 25]: 20
